US12697316B2, “Combination therapy with acetyl-leucine and miglustat” (INTRABIO LTD., priority 2019, dated 2026)

Assays:
Npc1^−/− mice [1] = test: Survival / life span of Npc1−/− mice; format: in vivo, mouse
Experimental: BALBc/NPC ^h and Sandhoff mice were bred as heterozygotes to generate affected mice (Npc1^−/−, Hexb^−/−) and controls (Npc^+/+, Hexb^+/+). The mice were housed under non-sterile conditions, with food and water available ad libitum. All experiments were conducted using protocols approved by the UK Home Office Animal Scientific Procedures Act, 1986.
(§1) ADLL and enantiomers (ADLL: Molekula #73891210, ALL: Sigma Aldrich #441511, ADL: Sigma #A0876) were administered as dry admix in powdered mouse diet (PicoLab Rodent Diet 20/5053, LabDiet) at a dose of 0.1 g/kg/day for in vivo studies. Treatment groups for in vivo study consisted of at least 5 mice per group. In vitro studies were conducted with each compound dissolved in PBS to generate a 50 mM stock solution and diluted to a 1 mM working concentration in media (DMEM High Glucose-Gibco #10566016).
Miglustat (Monsanto/Oxford GlycoSciences) was administered as a dry solid mixed with powdered chow (600 mg/kg/day) (see above) alone or in combination with ADLL.
The weight and activity of each mouse was recorded weekly until reaching the humane endpoint (defined as a loss of 1 g body weight within 24 h). Gait analysis was performed using CatWalk 10.5 system (Noldus) according to the manufacturer's instructions and five runs were recorded per animal at each time point. The camera was set to 40 cm below the walkway, the walkway was approximately 4 cm wide, and detection settings set to camera gain 14.05 and green intensity 0.12. Motor function was measured using an accelerating NG Rota Rod for mice (Ugo Basile) starting from 1 rpm to 10 rpm, accelerating every 30 seconds by one rpm. Bar crossing experiments on Sandhoff animals were conducted to measure motor strength and coordination. The apparatus used was modified from published studies. […] Latency to cross or fall from the bar was scored, with 120 sec, maximum, to termination of each trial. […]

Npc1^−/− mice [2] = test: Lipid storage (GSLs, sphingoid bases, cholesterol) in liver of Npc1−/− mice; format: in vivo, mouse; design: reduction of liver GSL levels (total) / reduction of GM2Gc in liver / reduction of sphingosine in liver / reduction of sphinganine in liver / reduction of GM3Gc in liver: concentration or dose not given beside the values; conditions: 59 days of age
Experimental: as §1
Biochemical and immunohistochemical analyses. Mice were saline perfused under terminal anaesthesia. Tissues for biochemical analysis were snap-frozen on ice-cold isopentane. For immunofluorescent staining, tissues were perfused with 4% PFA followed by PBS and kept in 4% PFA for 24h and stored in PBS containing 20% sucrose longer term. Brains were cut parasagitally (20 micron sections) and stored in 30% ethylene glycol, 30% glycerol 0.1 M sodium phosphate buffer (pH 7.4) at −20° C. Biochemical analysis was performed on water-homogenised tissues (50 mg/ml) and protein content was determined using a BCA protein assay (Thermo Fisher #23227) according to the manufacturer's instructions.
Sphingoid Base Measurements: Sphingoid bases (sphingosine and sphinganine) were extracted from 100 uL tissue homogenates in 500 uL of chloroform:methanol (1:2v/v) followed by sonication for 10 minutes at room temperature. Subsequently, 1 M 500-uL sodium chloride, 500 uL chloroform, and 3 M 100 uL sodium hydroxide were added to the samples, and vortexed every five minutes for 15 minutes at room temperature. Homogenates were centrifuged (13,000 g for 10 minutes) and the lower organic phase retained. Sphingoid bases were purified from the samples by pre-equilibrating SPA-NH2 columns with 2×1 mL chloroform followed by sample elution with 3×300 ul acetone. The samples were dried under nitrogen. Lipids were resuspended in 50 uL pre-warmed ethanol (37° C.) and 50 uL OPA labelling solution (1 mg OPA/20 uL Ethanol/1 uL 2-mercaptoethanol; dilution 1:2000 in 3% boric acid pH 10.5) was added. Samples were kept at room temperature in the dark for 20 minutes and vortexed every 10 minutes. Samples were buffered with 100 uL methanol: 5 mM Tris pH 7 (9:1) and centrifuged at 5,000 g for 2 minutes. Supernatants (150 uL) were loaded onto a reverse phase HPLC. Chromatography was carried out using a mobile phase of 85% acetonitrile/15% H2O at a flow rate of 1.0 ml/min. The orthophthaldehyde-labelled derivatives were monitored at an excitation wavelength of 340 nm and an emission wavelength of 450 nm. Quantification of trace peak area was carried out using EZChrom Elite software v3.2.1.
Glycosphingolipid measurements: Glycosphingolipids were extracted and measured by NP-HPLC according to published methods. Tissue homogenates in chloroform/methanol (C:M) (1:2 v/v) overnight at 4° C. The mixture was centrifuged (3000 rpm/10 min) and 1 mL chloroform and 1 mL PBS were added to the supernatant and centrifuged (3000 rpm/10 min). The lower phase was dried under N2, resuspended in 50 uL C:M 1:3 v/v and combined with the upper phase. Subsequently, GSLs were recovered using C18 Isolute columns (100 mg) (Biotage) pre-equilibrated with 4×1 mL MeOH and 2×1 mL H2O. Samples were washed 3×1 mL H2O and eluted with 1 mL C:M 98:2, 2×1 mL C:M 1:3, 1 mL MeOH. The column eluate was dried under N2, resuspended in 100 uL C:M 2:1, dried again under N2 and resuspended in ceramide glycanase (CGase) buffer (50 mM sodium acetate pH 5.5, 1 mg/mL sodium taurodeoxycholate). 50 mU CGase was added, and samples incubated at 37° C. overnight. Released oligosaccharides were anthranilic acid (2-AA) labelled and purified by mixing with 1 mL Acetonitrile: H2O 97:3 and added to Discovery DPA-6S columns (SUPELCO, # 52625-U) pre-equilibrated with 1 mL acetonitrile, 2×1 mL H2O, and 2×1 mL acetonitrile. Columns were washed with 2×1 mL Acetonitrile: H2O 95:5 v/v, and eluted in 2×0.75 mL H2O. […]

Compound	increase in life span (Npc1^−/− mice [1]; Npc1−/− mice treated from weaning, 0.1 g/kg/day, relative to untreated Npc1−/−)	decrease of total free cholesterol in liver (Npc1^−/− mice [2]) [%]	reduction of sphinganine in liver (Npc1^−/− mice [2]) [%]	reduction of sphingosine in liver (Npc1^−/− mice [2]) [%]	reduction of GM2Gc in liver (Npc1^−/− mice [2]; vs untreated Npc1−/−) [%]	reduction of liver GSL levels (total) (Npc1^−/− mice [2]; vs untreated Npc1−/−) [%]	median survival (Npc1^−/− mice [1]; Npc1−/− mice, ADLL 0.1 g/kg/day, miglustat 600 mg/kg/day in chow, untreated Npc1−/− 87 days) [days]	reduction of GM3Gc in liver (Npc1^−/− mice [2]; vs untreated Npc1−/−) [%]
CC(=O)N[C@H](CC(C)C)C(=O)O [ADL, N-acetyl-D-leucine]	not changed	16.2	38.5	33.6	29	26.9	–	–
CC(=O)NC(CC(C)C)C(=O)O (racemic) [ADLL, N-acetyl-DL-leucine]	–	18.2	32.5	29.5	26.7	26.9	91	–
CC(=O)N[C@@H](CC(C)C)C(=O)O [ALL, N-acetyl-L-leucine]	–	23.4	37.4	33.2	45	45.6	–	54.8
